Active and inactive are the calls of the source.
Experiments:
Bcl-2-like protein 10 = target: T1, Bcl-2-like protein 10 (Homo sapiens, UniProt Q9HD36); assay: Concentration-response of Bcl-B inhibitors by biochemical FP with TR3 (AID 1243); format: functional
T1 sequence (Q9HD36 whole entry): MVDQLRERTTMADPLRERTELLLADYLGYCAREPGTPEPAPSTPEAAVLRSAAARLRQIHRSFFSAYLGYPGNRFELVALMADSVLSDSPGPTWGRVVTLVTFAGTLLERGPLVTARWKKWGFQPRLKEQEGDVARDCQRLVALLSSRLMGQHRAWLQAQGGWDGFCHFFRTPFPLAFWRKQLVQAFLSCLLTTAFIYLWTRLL

[1] = target: Neuropeptide Y receptor type 1 (Homo sapiens, UniProt P25929); assay: IC50 of human NPY-Y1 blockers – cell-based, dose response (AID 1277); format: functional
[2] = target: Neuropeptide Y receptor type 2 (Homo sapiens, UniProt P49146); assay: IC50 for human NPY-Y2 blockade – cell-based, counter-screen for NPY-Y1 antagonist project, dose response (AID 1278); format: functional
HeLa = assay: Cytotoxicity counterscreen assay for transcriptional activators of heat shock protein 70 (Hsp70). [Related pubchem assays: 1203, 1252 ]; format: functional; conditions: Homo sapiens
BJ [3] = assay: growth inhibition of engineered Ras-driven BJ cells – cell-based, alamar blue fluorescence, cherrypicked samples, dose response (AID 2631); format: functional; conditions: Homo sapiens;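 note: confirmatory dose-response assay in RAS-dependent BJ fibroblasts engineered with TERT, LT and ST, with cytotoxicity read by fluorescence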
[4] = Luminescence Cell-Based Dose Response HTS to Identify Inhibitors of 5'UTR Stem-Loop Driven Prion Protein mRNA Translation in H4 Neuroglioblastoma Cells. [Related pubchem assays: 1827 (Project Summary), 1813 (Primary HTS)]; format: functional
[5] = DRD fibroblast viability loss – cell-based, non-viral oncogenic, luminescence, dose response (AID 1934); format: functional; conditions: Homo sapiens
BJ [6] = assay: BJ-TERT-LT-ST fibroblast viability loss – cell-based, RAS-independent, luminescence, dose response (AID 1935); format: functional; conditions: Homo sapiens;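 note: BJ fibroblasts immortalized with TERT plus LT and ST oncogenes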
Estrogen receptor = target: T2, Estrogen receptor (Homo sapiens, UniProt P03372);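 note: potency for inhibiting coactivator peptide recruitment to the receptor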
T2 sequence (P03372 whole entry): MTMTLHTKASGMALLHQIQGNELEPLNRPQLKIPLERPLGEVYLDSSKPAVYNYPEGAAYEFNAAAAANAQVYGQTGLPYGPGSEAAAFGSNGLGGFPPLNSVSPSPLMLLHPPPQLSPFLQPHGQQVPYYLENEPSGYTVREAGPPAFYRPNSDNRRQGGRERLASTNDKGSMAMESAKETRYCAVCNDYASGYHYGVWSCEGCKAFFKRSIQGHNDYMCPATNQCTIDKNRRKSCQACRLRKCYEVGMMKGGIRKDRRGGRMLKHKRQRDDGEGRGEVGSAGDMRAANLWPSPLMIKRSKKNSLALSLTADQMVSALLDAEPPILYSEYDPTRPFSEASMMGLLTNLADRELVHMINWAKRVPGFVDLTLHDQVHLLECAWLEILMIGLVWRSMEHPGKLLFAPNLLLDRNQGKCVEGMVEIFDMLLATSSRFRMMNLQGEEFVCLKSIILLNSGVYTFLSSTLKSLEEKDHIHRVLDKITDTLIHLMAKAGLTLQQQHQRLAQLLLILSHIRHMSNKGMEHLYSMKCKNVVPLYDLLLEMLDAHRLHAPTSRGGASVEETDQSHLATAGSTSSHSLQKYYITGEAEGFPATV

[7] = luciferase reporter signal suppression in cells – H4 neuroglioma cells, luminescence, dose response (AID 1990); format: functional, cell-based
[8] = target: Mothers against decapentaplegic homolog 3 (Homo sapiens, UniProt P84022); assay: inhibitors of SMAD-driven TGF-beta signaling – dose response (AID 715); format: functional
Streptococcus = assay: GAS UMAA2166 growth inhibition – luminescence, BacTiterGlo, counter-screen for streptokinase expression inhibitor project, dose response (AID 1915); format: functional, organism-based;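 note: potency for reduction of bacterial viability or growth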
[9] = alpha-synuclein stem-loop luciferase translation blockers – H4 neuroglioma cells, luminescence, confirmation (AID 1988); format: functional, cell-based
[10] = system: Streptococcus sp. 'group A'; assay: Streptococcus pyogenes SK(-)GAS viability under kanamycin – luminescence, BacTiterGlo, confirmation, counter-screen for streptokinase expression inhibitor project, dose response (AID 1900); format: functional, organism-based
BJ [11] = assay: cells; format: functional, cell-based; conditions: Homo sapiens
Streptokinase A = target: T3, Streptokinase A (Streptococcus pyogenes serotype M1, UniProt P10520); assay: viability-normalized secreted streptokinase activity reduction – plasminogen activation absorbance, OD405, dose response (AID 1914); format: functional, Streptococcus pyogenes M1 GAS;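 note: secreted streptokinase activity via plasminogen activation per viability signal from cell pellet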
T3 sequence (P10520 whole entry): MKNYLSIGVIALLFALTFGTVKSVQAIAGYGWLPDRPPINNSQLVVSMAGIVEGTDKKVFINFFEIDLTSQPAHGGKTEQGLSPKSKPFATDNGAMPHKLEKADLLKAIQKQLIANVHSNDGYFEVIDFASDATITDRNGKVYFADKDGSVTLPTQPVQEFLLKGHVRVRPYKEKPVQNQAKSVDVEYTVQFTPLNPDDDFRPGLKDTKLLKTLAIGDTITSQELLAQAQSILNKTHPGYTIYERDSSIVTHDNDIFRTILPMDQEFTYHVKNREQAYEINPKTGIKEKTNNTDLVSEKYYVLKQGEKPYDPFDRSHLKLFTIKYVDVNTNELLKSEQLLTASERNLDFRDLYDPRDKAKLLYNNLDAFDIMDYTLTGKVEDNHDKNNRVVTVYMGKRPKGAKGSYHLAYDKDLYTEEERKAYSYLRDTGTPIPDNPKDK

[12] = target: T4, Corticotropin-releasing factor receptor 2/Corticotropin-releasing factor-binding protein (Homo sapiens, UniProt P24387+Q13324); assay: Dose Response confirmation of uHTS hits for small molecule antagonists of the CRF-binding protein and CRF-R2 receptor complex.; format: functional; conditions: read-out: IC50_Mean
T4 sequence (Q13324 whole entry): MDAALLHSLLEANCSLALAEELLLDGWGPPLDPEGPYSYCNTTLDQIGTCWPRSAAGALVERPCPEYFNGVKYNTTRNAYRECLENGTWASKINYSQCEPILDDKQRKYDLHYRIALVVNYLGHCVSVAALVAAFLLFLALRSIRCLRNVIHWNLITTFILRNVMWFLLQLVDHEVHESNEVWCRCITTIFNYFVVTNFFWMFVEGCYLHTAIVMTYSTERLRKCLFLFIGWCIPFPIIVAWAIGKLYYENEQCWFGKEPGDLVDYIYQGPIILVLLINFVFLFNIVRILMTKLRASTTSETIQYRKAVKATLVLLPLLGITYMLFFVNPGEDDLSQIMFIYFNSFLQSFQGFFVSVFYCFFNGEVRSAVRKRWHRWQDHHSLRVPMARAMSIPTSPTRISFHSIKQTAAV
T4 sequence (P24387 whole entry): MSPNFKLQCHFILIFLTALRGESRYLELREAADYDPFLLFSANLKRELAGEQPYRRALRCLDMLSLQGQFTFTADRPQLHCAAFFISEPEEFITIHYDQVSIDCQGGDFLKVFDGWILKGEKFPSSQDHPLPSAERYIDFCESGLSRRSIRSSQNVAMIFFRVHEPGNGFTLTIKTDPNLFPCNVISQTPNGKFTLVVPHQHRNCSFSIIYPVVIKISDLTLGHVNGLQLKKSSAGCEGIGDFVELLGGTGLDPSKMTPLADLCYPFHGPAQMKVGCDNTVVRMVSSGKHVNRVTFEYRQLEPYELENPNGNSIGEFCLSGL

[13] = blockers of CRF-binding protein–CRF-R2 complex – cell-based, uHTS hits, 384-well, dose response (AID 651639); format: functional, Homo sapiens; conditions: read-out: IC50_Mean
[14] = target: T4, Corticotropin-releasing factor receptor 2/Corticotropin-releasing factor-binding protein; assay: activators of CRF receptor 2 with binding protein – uHTS hits, confirmation (AID 602473); format: functional; conditions: read-out: EC50_Mean
Aminopeptidase N = target: T5, Aminopeptidase N (Plasmodium falciparum FcB1/Columbia, UniProt O96935); assay: malaria alanyl aminopeptidase activity blockers – biochemical, fluorogenic H-Leu-NHMec substrate, 1536-well (AID 1445); parameters: species or system Plasmodium falciparum 3D7, 3D7
T5 sequence (O96935 whole entry): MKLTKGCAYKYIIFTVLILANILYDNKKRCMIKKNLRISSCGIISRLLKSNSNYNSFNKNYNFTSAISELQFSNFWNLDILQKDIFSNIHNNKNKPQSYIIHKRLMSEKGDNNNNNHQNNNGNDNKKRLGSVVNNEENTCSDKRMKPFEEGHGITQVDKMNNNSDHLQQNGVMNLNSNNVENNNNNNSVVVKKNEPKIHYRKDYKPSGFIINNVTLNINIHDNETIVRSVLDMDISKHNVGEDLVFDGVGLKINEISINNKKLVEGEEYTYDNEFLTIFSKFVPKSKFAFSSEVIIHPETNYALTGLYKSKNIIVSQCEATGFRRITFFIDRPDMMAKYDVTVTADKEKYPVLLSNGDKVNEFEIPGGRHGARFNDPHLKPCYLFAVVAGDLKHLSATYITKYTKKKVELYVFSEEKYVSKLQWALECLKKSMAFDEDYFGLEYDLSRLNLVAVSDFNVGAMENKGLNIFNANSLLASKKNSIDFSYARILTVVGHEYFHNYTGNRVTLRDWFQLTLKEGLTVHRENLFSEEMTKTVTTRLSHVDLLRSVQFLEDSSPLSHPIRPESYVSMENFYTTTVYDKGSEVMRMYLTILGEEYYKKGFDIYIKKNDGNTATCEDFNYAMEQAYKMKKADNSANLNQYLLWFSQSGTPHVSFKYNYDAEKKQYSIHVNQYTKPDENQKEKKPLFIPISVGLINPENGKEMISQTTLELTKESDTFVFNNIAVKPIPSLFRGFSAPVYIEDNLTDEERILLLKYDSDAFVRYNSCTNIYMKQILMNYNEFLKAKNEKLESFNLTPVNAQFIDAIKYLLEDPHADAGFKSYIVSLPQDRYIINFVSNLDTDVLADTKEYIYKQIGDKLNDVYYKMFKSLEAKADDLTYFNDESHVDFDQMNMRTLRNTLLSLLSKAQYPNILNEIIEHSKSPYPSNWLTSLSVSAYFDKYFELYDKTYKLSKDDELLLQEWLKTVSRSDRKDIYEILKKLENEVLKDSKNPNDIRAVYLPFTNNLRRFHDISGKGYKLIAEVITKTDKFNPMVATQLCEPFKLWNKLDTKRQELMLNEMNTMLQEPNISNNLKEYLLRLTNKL

Phospholipase A2 = Phospholipase A2 (Homo sapiens, UniProt P04054); format: functional;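 note: confirmatory dose-response counterscreen on phospholipase A2, testing hits that came from an ultra-high-throughput screen for ATG4B inhibitors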
[15] = CCR5-tropic HIV-1 fusion blockers – cell-based, CCR5-tropic Env, dose response (AID 2279); format: functional
Cysteine protease ATG4B = target: T6, Cysteine protease ATG4B (Homo sapiens, UniProt Q9Y4P1); format: functional;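 note: Fluorescence-based dose-response confirmation assay measuring inhibition of ATG4B activity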
T6 sequence (Q9Y4P1 whole entry): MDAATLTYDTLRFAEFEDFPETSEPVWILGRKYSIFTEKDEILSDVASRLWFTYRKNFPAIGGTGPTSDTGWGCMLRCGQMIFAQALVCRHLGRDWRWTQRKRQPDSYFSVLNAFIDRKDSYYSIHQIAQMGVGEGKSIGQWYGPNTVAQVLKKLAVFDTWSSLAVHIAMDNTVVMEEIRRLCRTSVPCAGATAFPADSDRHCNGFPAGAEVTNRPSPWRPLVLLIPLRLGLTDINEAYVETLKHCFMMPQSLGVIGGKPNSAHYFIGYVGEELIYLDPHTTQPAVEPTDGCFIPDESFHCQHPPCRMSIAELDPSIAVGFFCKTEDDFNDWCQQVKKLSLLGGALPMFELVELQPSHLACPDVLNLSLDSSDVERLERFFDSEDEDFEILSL

NS3 = NS3 (Hepatitis C virus, UniProt A3EZJ3); assay: PubChem AID 2173; parameters: species or system Hepacivirus hominis
[16] = target: T7, Heat shock factor protein 1 (Mus musculus, UniProt P38532); assay: enhancement of HSF1-driven luciferase signal – cell-based, NIH3T3, luminescence, dose retest, confirmation (AID 435004); format: functional;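 note: stress induced by proteasome inhibitor MG132 added 30 min after compound; luciferase reporter driven by HSF1 response element in NIH3T3 cells; actives raise luminescence as potentiators of the MG132 stress response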
T7 sequence (P38532 whole entry): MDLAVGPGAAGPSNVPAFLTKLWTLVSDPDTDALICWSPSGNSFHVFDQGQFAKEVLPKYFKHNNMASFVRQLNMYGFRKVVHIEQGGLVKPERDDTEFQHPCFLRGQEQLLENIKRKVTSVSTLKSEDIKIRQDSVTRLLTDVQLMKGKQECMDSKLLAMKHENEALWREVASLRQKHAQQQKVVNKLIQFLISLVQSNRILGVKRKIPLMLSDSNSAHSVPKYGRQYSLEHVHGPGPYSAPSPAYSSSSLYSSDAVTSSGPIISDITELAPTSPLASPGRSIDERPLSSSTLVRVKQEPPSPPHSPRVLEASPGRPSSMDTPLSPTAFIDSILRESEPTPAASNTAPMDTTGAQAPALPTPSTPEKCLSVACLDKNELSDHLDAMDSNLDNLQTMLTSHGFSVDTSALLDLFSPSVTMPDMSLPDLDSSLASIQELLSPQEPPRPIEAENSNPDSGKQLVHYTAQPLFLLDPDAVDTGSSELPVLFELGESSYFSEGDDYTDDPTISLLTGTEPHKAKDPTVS

[17] = M. tuberculosis growth inhibition, HTS (AID 449762); format: functional
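Throughout, for CC50: cells exposed to compound for 16 hours before readout.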

Sequence of Mothers against decapentaplegic homolog 3 (P84022 whole entry): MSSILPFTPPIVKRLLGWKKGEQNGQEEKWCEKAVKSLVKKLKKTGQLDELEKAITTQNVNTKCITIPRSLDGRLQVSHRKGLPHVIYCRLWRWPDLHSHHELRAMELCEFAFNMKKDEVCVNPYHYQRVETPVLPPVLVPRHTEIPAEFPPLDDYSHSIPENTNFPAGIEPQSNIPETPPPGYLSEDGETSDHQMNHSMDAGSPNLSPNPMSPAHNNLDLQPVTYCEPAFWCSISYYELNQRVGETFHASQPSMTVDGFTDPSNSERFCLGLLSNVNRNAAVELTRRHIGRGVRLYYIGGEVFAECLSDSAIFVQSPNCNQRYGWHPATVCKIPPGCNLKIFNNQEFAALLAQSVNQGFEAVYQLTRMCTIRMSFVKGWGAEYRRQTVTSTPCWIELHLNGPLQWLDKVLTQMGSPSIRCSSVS
Sequence of Neuropeptide Y receptor type 2 (P49146 whole entry): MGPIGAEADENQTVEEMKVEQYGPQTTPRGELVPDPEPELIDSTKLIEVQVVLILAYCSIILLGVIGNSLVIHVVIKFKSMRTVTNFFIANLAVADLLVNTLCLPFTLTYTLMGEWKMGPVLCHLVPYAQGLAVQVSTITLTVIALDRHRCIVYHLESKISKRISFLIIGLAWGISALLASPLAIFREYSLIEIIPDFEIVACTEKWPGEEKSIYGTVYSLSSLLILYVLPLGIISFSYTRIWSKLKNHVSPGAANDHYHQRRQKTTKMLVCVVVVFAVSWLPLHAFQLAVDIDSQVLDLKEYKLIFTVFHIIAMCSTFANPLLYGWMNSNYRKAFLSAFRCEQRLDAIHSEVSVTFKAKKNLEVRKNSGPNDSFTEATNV
Sequence of Phospholipase A2 (P04054 whole entry, the tested form may be a part): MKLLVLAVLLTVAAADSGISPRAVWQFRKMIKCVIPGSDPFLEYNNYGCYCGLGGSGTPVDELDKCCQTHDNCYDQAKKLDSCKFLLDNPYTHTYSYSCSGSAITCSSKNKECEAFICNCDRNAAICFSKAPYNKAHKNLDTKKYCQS
Sequence of NS3 (A3EZJ3 whole entry): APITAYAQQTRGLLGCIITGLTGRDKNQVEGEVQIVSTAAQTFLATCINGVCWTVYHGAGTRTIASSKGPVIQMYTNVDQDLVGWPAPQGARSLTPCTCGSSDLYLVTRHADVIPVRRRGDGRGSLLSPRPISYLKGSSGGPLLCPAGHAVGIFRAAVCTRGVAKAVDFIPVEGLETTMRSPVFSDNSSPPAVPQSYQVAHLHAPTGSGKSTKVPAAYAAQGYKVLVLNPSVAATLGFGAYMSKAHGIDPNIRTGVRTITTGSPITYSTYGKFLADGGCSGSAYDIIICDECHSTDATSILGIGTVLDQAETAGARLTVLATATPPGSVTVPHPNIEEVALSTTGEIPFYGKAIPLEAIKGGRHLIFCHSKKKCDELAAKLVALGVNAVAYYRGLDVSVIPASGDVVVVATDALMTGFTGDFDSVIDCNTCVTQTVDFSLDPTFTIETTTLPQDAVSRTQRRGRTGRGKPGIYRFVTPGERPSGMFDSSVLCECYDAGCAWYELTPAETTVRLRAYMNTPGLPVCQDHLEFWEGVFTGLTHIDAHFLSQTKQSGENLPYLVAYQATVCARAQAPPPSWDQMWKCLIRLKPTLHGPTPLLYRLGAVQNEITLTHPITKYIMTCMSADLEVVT
Sequence of Neuropeptide Y receptor type 1 (P25929 whole entry): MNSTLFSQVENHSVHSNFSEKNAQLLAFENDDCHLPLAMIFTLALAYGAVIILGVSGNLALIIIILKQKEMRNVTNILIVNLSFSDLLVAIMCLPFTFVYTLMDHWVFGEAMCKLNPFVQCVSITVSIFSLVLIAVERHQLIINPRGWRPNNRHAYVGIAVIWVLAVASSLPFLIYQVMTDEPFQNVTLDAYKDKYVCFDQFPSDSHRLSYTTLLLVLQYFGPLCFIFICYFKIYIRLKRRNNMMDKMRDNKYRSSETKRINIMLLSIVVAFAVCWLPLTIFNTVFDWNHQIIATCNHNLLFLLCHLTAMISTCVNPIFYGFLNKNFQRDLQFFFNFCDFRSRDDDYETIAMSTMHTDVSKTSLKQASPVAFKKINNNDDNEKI

## O=C1C=CC(=O)C(/C(=C/NCc2ccccc2)[N+](=O)[O-])=C1
Bcl-2-like protein 10
  EC50: 5.7 µM (active)

## Cc1nn(-c2ccccc2)c2sc(C(=O)O)cc12
[1]
  IC50: > 35 µM (not active)
[2]
  IC50: > 35 µM (not active)

## Cn1c(CCN2CCOCC2)nc2cc(NC(=O)COc3ccc(Cl)cc3)ccc21
HeLa
  CC50: > 99 µM (not active)

## CCOC(=O)c1c2c(n(C)c1COC)C(=O)C(=O)c1ccc(Br)cc1-2
BJ [3]
  EC50: 0.562 µM (active)
[4]
  EC50: 5.16 µM (active)
[5]
  EC50: 2.36 µM (active)
BJ [6]
  EC50: 1.08 µM (inconclusive)
Estrogen receptor
  IC50: 8.87 µM (active)
[7]
  EC50: 4.87 µM (active)
[8]
  IC50: 0.771 µM (active)
Streptococcus
  EC50: 24.3 µM (active)
[9]
  EC50: 1.44 µM (active)
[10]
  EC50: 1.13 µM (active)
BJ [11]
  EC50: 3.08 µM (active)
Streptokinase A
  EC50: > 150 µM (not active)

## Cc1ccc(N2C(=O)/C(=C\Nc3ccccc3-c3nnc(S)nc3O)c3ccccc3C2=O)c(C)c1
[12]
  IC50: 3.83 µM (active)
[13]
  IC50: > 20 µM (inactive)
[14]
  EC50: > 53 µM (inactive)
Aminopeptidase N
  IC50: 27.4 µM (active)
Phospholipase A2
  IC50: 10 µM (active)
[15]
  IC50: 39.9 µM (active)
Cysteine protease ATG4B
  IC50: 14 µM (active)

## COc1ccccc1/C=C/C1=NC(=C\C=C/c2ccccc2)/C(=O)O1
NS3
  IC50: 24.1 µM (not active)
[16]
  EC50: > 260 µM (inactive)
[17]
  IC50: > 100 µM (active)

From ChEMBL document CHEMBL1201862, “PubChem BioAssay data set” (2004)
